Target: STK4 (MST1) (Homo sapiens (Human), UniProt Q13043)
Experiment: Z-lyte biochemical IC50 assay (Invitrogen)
Details: ATP concentration matched the Km
Procedure: STK4 (MST1), STK3 (MST2); STK24 (MST3) and MST4 Assays
Biochemical IC50s were measured at Invitrogen using Z-lyte technology. Briefly, for STK4, the 2×STK4 (MST1)/Ser/Thr 07 mixture was prepared in 50 mM HEPES pH 7.5, 0.01% BRIJ35, 10 mM MgCl2, 1 mM EGTA. The final 10 μL Kinase Reaction consisted of 6.25-160 ng STK4 (MST1) and 2 μM Ser/Thr 07 in 50 mM HEPES pH 7.5, 0.01% BRIJ-35, 10 mM MgCl2, 1 mM EGTA. After the 1 hour Kinase Reaction incubation, 5 μL of a 1:100000 dilution of Development Reagent A was added. Compounds were screened in a 10 point titration with 3-fold serial dilutions starting at a concentration of 10 μM. The biochemical IC50s against other STK family members were measured similarly. The ATP concentration used matched the Km for each kinase.

STK4 (MST1), sequence (Q13043 whole entry): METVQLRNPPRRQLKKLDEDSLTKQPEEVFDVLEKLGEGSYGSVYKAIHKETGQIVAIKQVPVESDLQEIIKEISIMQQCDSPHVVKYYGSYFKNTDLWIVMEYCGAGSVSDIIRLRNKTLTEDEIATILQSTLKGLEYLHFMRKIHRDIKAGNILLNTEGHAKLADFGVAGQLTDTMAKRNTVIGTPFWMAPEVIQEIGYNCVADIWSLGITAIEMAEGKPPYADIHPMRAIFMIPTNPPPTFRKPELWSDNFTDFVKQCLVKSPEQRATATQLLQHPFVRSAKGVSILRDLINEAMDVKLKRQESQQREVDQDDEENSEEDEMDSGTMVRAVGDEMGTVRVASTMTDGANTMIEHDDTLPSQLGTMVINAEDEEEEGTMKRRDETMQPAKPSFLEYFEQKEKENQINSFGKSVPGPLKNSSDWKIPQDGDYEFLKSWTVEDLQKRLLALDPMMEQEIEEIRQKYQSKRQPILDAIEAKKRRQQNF

SMILES | IC50
Cn1cnc2c(-c3cnc(N)c(-c4ccc5c(c4)CCNC5=O)c3)cccc21 [Compound I-14, 6-(2-amino-5-(1-methyl-1H-benzo[d]imidazol-4-yl)pyridin-3-yl)-3,4-dihydroisoquinolin-1(2H)-one] | 40 to 200 nM
Nc1ncc(-c2ccc3ncsc3c2)cc1-c1ccc2c(c1)CCNC2=O [Compound I-44, 6-(2-amino-5-(benzo[d]thiazol-6-yl)pyridin-3-yl)-3,4-dihydroisoquinolin-1(2H)-one] | 40 to 200 nM
Nc1ncc(-c2cccc3scnc23)cc1-c1ccc2c(c1)CCNC2=O [Compound I-55, 6-(2-amino-5-(benzo[d]thiazol-4-yl)pyridin-3-yl)-3,4-dihydroisoquinolin-1(2H)-one] | 40 to 200 nM
NC(=O)c1ccc(-c2cc(-c3cc([N+](=O)[O-])ccc3F)cnc2N)cc1 [Compound I-31, 4-(2-amino-5-(2-fluoro-5-nitrophenyl)pyridin-3-yl)benzamide] | 200 to 900 nM
Cc1cc(N2CCOCC2)cc2[nH]c(-c3c(NC[C@@H](O)c4cccc(Cl)c4)cc[nH]c3=O)nc12 [BMS536924, reference compound] | 40 to 200 nM
COc1cc(S(=O)(=O)NC2CC2)ccc1-c1cnc(N)c(-c2ccc3c(c2)CCNC3=O)c1 [Compound I-49, 4-(6-amino-5-(1-oxo-1,2,3,4-tetrahydroisoquinolin-6-yl)pyridin-3-yl)-N-cyclopropyl-3-methoxybenzenesulfonamide] | < 40 nM
Nc1ncc(-c2ccc([N+](=O)[O-])cc2F)cc1-c1ccc2c(c1)CCNC2=O [Compound I-54, 6-(2-amino-5-(2-fluoro-4-nitrophenyl)pyridin-3-yl)-3,4-dihydroisoquinolin-1(2H)-one] | 40 to 200 nM
Nc1ncc(-c2cc(F)ccc2[N+](=O)[O-])cc1-c1ccc2c(c1)CCNC2=O [Compound I-7, 6-(2-amino-5-(5-fluoro-2-nitrophenyl)pyridin-3-yl)-3,4-dihydroisoquinolin-1(2H)-one] | > 900 nM
CC(C)Oc1cc(S(=O)(=O)N(C)C2CC2)ccc1-c1cnc(N)c(-c2ccc3c(c2)CCNC3=O)c1 [Compound I-48, 4-(6-amino-5-(1-oxo-1,2,3,4-tetrahydroisoquinolin-6-yl)pyridin-3-yl)-N-cyclopropyl-3-isopropoxy-N-methylbenzenesulfonamide] | < 40 nM
N#Cc1cc(-c2cc(-c3cc([N+](=O)[O-])ccc3F)cnc2N)ccc1O [Compound I-11, 5-(2-amino-5-(2-fluoro-5-nitrophenyl)pyridin-3-yl)-2-hydroxybenzonitrile] | > 900 nM
Nc1ncc(-c2cc([N+](=O)[O-])cnc2F)cc1-c1ccc2c(c1)CCNC2=O [Compound I-39, 6-(6-amino-2′-fluoro-5′-nitro-[3,3′-bipyridin]-5-yl)-3,4-dihydroisoquinolin-1(2H)-one] | 200 to 900 nM
NC(=O)c1ccc(-c2cc(-c3cc([N+](=O)[O-])ccc3F)cnc2N)cc1Cl [Compound I-30, 4-(2-amino-5-(2-fluoro-5-nitrophenyl)pyridin-3-yl)-2-chlorobenzamide] | 200 to 900 nM
Nc1ncc(-c2cc([N+](=O)[O-])cc(F)c2F)cc1-c1ccc2c(c1)CCNC2=O [Compound I-18, 6-(2-amino-5-(2,3-difluoro-5-nitrophenyl)pyridin-3-yl)-3,4-dihydroisoquinolin-1(2H)-one] | 40 to 200 nM
C#Cc1cc(F)c(-c2cnc(N)c(-c3ccc4c(c3)CCNC4=O)c2)cc1[N+](=O)[O-] [Compound I-45, 6-(2-amino-5-(4-ethynyl-2-fluoro-5-nitrophenyl)pyridin-3-yl)-3,4-dihydroisoquinolin-1(2H)-one] | 40 to 200 nM
COc1cc(S(=O)(=O)N(C)C2CCCCC2)ccc1-c1cnc(N)c(-c2ccc3c(c2)CCNC3=O)c1 [Compound I-52, 4-(6-amino-5-(1-oxo-1,2,3,4-tetrahydroisoquinolin-6-yl)pyridin-3-yl)-N-cyclohexyl-3-methoxy-N-methylbenzenesulfonamide] | 40 to 200 nM
COc1cc(C#N)ccc1-c1cnc(N)c(-c2ccc3c(c2)CCNC3=O)c1 [Compound I-61, 4-(6-amino-5-(1-oxo-1,2,3,4-tetrahydroisoquinolin-6-yl)pyridin-3-yl)-3-methoxybenzonitrile] | < 40 nM
CCOc1cc(S(=O)(=O)N(C)C2CC2)ccc1-c1cnc(N)c(-c2ccc3c(c2)CCNC3=O)c1 [Compound I-47, 4-(6-amino-5-(1-oxo-1,2,3,4-tetrahydroisoquinolin-6-yl)pyridin-3-yl)-N-cyclopropyl-3-ethoxy-N-methylbenzenesulfonamide] | < 40 nM
Nc1ncc(-c2cc(F)cc([N+](=O)[O-])c2)cc1-c1ccc2c(c1)CCNC2=O [Compound I-17, 6-(2-amino-5-(3-fluoro-5-nitrophenyl)pyridin-3-yl)-3,4-dihydroisoquinolin-1(2H)-one] | 40 to 200 nM
COc1ccncc1-c1cnc(N)c(-c2ccc3c(c2)CCNC3=O)c1 [Compound I-8, 6-(6-amino-4′-methoxy-[3,3′-bipyridin]-5-yl)-3,4-dihydroisoquinolin-1(2H)-one] | > 900 nM
COc1cc(S(=O)(=O)N(C)C2CCOCC2)ccc1-c1cnc(N)c(-c2ccc3c(c2)CCNC3=O)c1 [Compound I-53, 4-(6-amino-5-(1-oxo-1,2,3,4-tetrahydroisoquinolin-6-yl)pyridin-3-yl)-3-methoxy-N-methyl-N-(tetrahydro-2H-pyran-4-yl)benzenesulfonamide] | 40 to 200 nM

The next lines start with the values.

IC50 | SMILES
< 40 nM | CN1CCc2cc(-c3cc(-c4ccc(S(=O)(=O)N(C)C5CC5)cc4F)cnc3N)ccc2C1=O [Compound I-62, 4-(6-amino-5-(2-methyl-1-oxo-1,2,3,4-tetrahydroisoquinolin-6-yl)pyridin-3-yl)-N-cyclopropyl-3-fluoro-N-methylbenzenesulfonamide]
< 40 nM | CN(C1CC1)S(=O)(=O)c1ccc(-c2cnc(N)c(-c3ccc4c(=O)[nH]cnc4c3)c2)c(F)c1 [Compound I-63, 4-(6-amino-5-(4-oxo-3,4-dihydroquinazolin-7-yl)pyridin-3-yl)-N-cyclopropyl-3-fluoro-N-methylbenzenesulfonamide]
40 to 200 nM | Nc1ncc(-c2cc3scnc3cc2F)cc1-c1ccc2c(c1)CCNC2=O [Compound I-73, 6-(2-amino-5-(5-fluorobenzo[d]thiazol-6-yl)pyridin-3-yl)-3,4-dihydroisoquinolin-1(2H)-one]
< 40 nM | Nc1ncc(-c2cccc(-c3nccs3)c2)cc1-c1ccc2c(c1)CCNC2=O [Compound I-59, 6-(2-amino-5-(3-(thiazol-2-yl)phenyl)pyridin-3-yl)-3,4-dihydroisoquinolin-1(2H)-one]
40 to 200 nM | COc1cc(-c2nccs2)ccc1-c1cnc(N)c(-c2ccc3c(c2)CCNC3=O)c1 [Compound I-60, 6-(2-amino-5-(2-methoxy-4-(thiazol-2-yl)phenyl)pyridin-3-yl)-3,4-dihydroisoquinolin-1(2H)-one]
40 to 200 nM | Nc1ncc(-c2ccc(NS(=O)(=O)C3CC3)cc2OCc2ccccc2)cc1-c1ccc2c(c1)CCNC2=O [Compound I-66, N-(4-(6-amino-5-(1-oxo-1,2,3,4-tetrahydroisoquinolin-6-yl)pyridin-3-yl)-3-(benzyloxy)phenyl) cyclopropanesulfonamide]
40 to 200 nM | Nc1ncc(-c2cccc3ncsc23)cc1-c1ccc2c(=O)[nH]cnc2c1 [Compound I-64, 7-(2-amino-5-(benzo[d]thiazol-7-yl)pyridin-3-yl)quinazolin-4(3H)-one]
< 40 nM | Nc1ncc(-c2cccc(NS(=O)(=O)C3CC3)c2)cc1-c1ccc2c(c1)CCNC2=O [Compound I-58, N-(3-(6-amino-5-(1-oxo-1,2,3,4-tetrahydroisoquinolin-6-yl)pyridin-3-yl)phenyl) cyclopropanesulfonamide]
< 40 nM | CC(C)Oc1cc(S(=O)(=O)N(C)C2CC2)ccc1-c1cnc(N)c(-c2ccc3c(c2)CNC3=O)c1 [Compound I-68, 4-(6-amino-5-(1-oxoisoindolin-5-yl)pyridin-3-yl)-N-cyclopropyl-3-isopropoxy-N-methylbenzenesulfonamide]
40 to 200 nM | Nc1ncc(-c2scnc2Cl)cc1-c1ccc2c(c1)CCNC2=O [Compound I-77, 6-(2-amino-5-(4-chlorothiazol-5-yl)pyridin-3-yl)-3,4-dihydroisoquinolin-1(2H)-one]
< 40 nM | CC(C)Oc1cc(NS(=O)(=O)C2CC2)ccc1-c1cnc(N)c(-c2ccc3c(c2)CCNC3=O)c1 [Compound I-67, N-(4-(6-amino-5-(1-oxo-1,2,3,4-tetrahydroisoquinolin-6-yl)pyridin-3-yl)-3-isopropoxyphenyl) cyclopropanesulfonamide]
< 40 nM | Nc1ncc(-c2ccc(F)c3ncsc23)cc1-c1ccc2c(c1)CCNC2=O [Compound I-57, 6-(2-amino-5-(4-fluorobenzo[d]thiazol-7-yl)pyridin-3-yl)-3,4-dihydroisoquinolin-1(2H)-one]
40 to 200 nM | Nc1ncc(-c2ccc(F)c3ncsc23)cc1-c1ccc2c(c1)CNC2=O [Compound I-70, 5-(2-amino-5-(4-fluorobenzo[d]thiazol-7-yl)pyridin-3-yI)isoindolin-1-one]
200 to 900 nM | Nc1ncc(-c2cccc(S(N)(=O)=O)c2)cc1-c1ccc2c(c1)CCNC2=O [Compound I-71, 3-(6-amino-5-(1-oxo-1,2,3,4-tetrahydroisoquinolin-6-yl)pyridin-3-yl)benzenesulfonamide]
< 40 nM | Nc1ncc(-c2ccc(NS(=O)(=O)C3CC3)cc2OC2CCCC2)cc1-c1ccc2c(c1)CCNC2=O [Compound I-69, N-(4-(6-amino-5-(1-oxo-1,2,3,4-tetrahydroisoquinolin-6-yl)pyridin-3-yl)-3-(cyclopentyloxy)phenyl) cyclopropanesulfonamide]
